Laboratory results published in patent US4960867A, “Leiurus quinquestriatus venom peptide inhibitor of calcium activated potassium channels” (priority 1989, dated 1990).

Tested on: high conductance Ca2+-activated K+ channel
Assay type: biochemical
Experimental: Single Ca^2+ -activated K^+ channel currents were monitored in excised membrane patches derived from either bovine aortic smooth muscle cells or GH3 anterior pituitary cells.
Channel recordings were made by conventional patch clamp procedures as previously described by Hamil, O. P., et al. Using a micromanipulator, a glass micropipette (fabricated from soda lime glass, 5-10 m.OMEGA. resistance; containing 150 mM potassium chloride, 2 mM magnesium chloride, 1 5 μM calcium chloride, 10 mM HEPES, pH 7.3) was positioned on the surface of the cell, slight negative pressure was applied and the formation of a high resistance seal between the plasma membrane and pipette was monitored. Seals of 10-50×10^9 .OMEGA. were required for subsequent measurements.
After attaining such a seal, the cell membrane was ruptured by application of a rapid negative pressure pulse and the electrode was pulled away from the cell to form an outside-facing-out excised patch at the tip of the electrode. The presence of Ca^2+ -activated K^+ channels was then determined, and such activity could be recorded in excised patches for up to two hours. Recordings were made at a holding potential of 0 to +20 mV in a bathing medium consisting of 150 mM sodium chloride, 10 mM HEPES, pH 7.3. […]

`CC[N+](CC)(CC)CC` [tetraethylammonium ion] was tested, and the “block of channel activity” value was “rapid reversible block”.
